# Like-named read-outs stand apart in the source and are kept apart here.
# Legend:
# [1] = target: T1, cytoplasmic domain of the human CSF-1R (Homo sapiens, UniProt P07333); assay: In vitro kinase assay for colony stimulating factor-1 receptor (AlphaScreen); format: biochemical; settings: tested at about 1 μM; read-out: CSF-1R percent inhibition
# T1 construct: Recombinant protein corresponding to the cytoplasmic domain of the human CSF-1R; purchased Invitrogen Corporation, Carlsbad, Calif; PV3249
# T1 sequence (P07333 539-972 limits assumed): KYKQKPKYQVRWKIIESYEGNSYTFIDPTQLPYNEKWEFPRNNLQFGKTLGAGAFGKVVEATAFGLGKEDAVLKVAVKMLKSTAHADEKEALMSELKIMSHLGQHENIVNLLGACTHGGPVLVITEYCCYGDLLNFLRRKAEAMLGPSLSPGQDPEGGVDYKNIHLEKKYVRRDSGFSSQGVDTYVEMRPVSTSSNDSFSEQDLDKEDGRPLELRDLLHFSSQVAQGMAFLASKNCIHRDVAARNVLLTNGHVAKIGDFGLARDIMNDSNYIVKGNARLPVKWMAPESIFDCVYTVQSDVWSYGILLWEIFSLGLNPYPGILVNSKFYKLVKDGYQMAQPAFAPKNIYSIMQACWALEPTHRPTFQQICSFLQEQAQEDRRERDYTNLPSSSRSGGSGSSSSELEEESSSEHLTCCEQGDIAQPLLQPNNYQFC
# How it was run: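 AlphaScreen read-out (PT66 anti-pTyr acceptor beads, streptavidin donor beads, overnight incubation) measured phosphorylated peptide product. The product was formed by the human CSF-1R cytoplasmic domain at 4 nM with 1 µM ATP in Mg2+/Mn2+ HEPES buffer, pH 7.5. Compound dilution series were 3-fold, starting at 25 µM.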
# [2] = target: T2, full-length human CSF-1R receptor (Homo sapiens, UniProt P07333); assay: In vitro inhibition of CSF-1R receptor tyrosine phosphorylation in transfected HEK293H cells stimulated with MCSF; format: cell-based; settings: HEK293-H, tested at about 1 μM; HEK293H cells; read-out: pCSF1R percent inhibition
# T2 construct: transfected with the full-length human CSF-1R receptor cloned in house; expressed in transfected cells; host or cells: HEK293H (Invitrogen Cat. #11631017)
# Protocol: The lysate was then transferred to total CSF-1R antibody coated 96-well plates that had already been blocked with 3% Blocker A from Mesoscale discovery (MSD) for 2 hours and washed afterwards. Lysates were incubated overnight at 4° C. and the plates were then washed 4× with MSD Tris Wash Buffer. […] The plates were read on the Sector 6000 instrument (MSD). Raw data was imported in Abase and EC50s calculated with XL-fit data analysis software.
# [3] = tested on: MNFS60 (murine AML cells); assay: Cell viability assay in MCSF dependent MNFS60 cells (Cell Titer Glo); format: cell-based; settings: Mus musculus, tested at about 1 μM, read-out: M-NFS-60 CP percent inhibition
# How it was run: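 Luminescent ATP signal (CellTiter-Glo) after 72 hrs of compound exposure served as the viability measure. Growth was supported by 10 ng/ml MCSF (final), and EC50 values come from fitted triplicate data.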
# [4] = target: T3, kinase domain of PDGFRβ (Homo sapiens, UniProt P09619); assay: Inhibition of PDGFRb kinase signaling in an in vitro biochemical assay (alphascreen); settings: tested at about 1 μM; read-out: PDGFRβ percent inhibition
# T3 construct: The kinase domain of PDGFRβ was assayed in 50 mM Hepes; purchased Invitrogen P3082
# [5] = target: T4, kinase domain of cKIT (Homo sapiens, UniProt P10721); assay: Inhibition of cKIT kinase signaling in an in vitro biochemical assay (alphascreen); settings: tested at about 1 μM; read-out: cKit percent inhibition
# T4 construct: The kinase domain of cKIT was assayed in 50 mM Hepes; purchased Upstate 14-559
# T4 sequence (P10721 589-937 limits assumed): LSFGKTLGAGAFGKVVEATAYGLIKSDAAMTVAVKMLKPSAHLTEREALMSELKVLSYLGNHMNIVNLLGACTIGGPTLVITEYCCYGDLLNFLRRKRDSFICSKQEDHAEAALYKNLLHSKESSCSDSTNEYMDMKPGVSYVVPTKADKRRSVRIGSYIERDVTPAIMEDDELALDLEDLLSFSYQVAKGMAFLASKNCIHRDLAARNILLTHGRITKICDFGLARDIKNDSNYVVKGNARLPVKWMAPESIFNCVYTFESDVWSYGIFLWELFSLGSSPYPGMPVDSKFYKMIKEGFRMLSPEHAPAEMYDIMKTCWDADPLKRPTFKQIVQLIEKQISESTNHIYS
# T3 sequence (P09619 600-962 limits assumed): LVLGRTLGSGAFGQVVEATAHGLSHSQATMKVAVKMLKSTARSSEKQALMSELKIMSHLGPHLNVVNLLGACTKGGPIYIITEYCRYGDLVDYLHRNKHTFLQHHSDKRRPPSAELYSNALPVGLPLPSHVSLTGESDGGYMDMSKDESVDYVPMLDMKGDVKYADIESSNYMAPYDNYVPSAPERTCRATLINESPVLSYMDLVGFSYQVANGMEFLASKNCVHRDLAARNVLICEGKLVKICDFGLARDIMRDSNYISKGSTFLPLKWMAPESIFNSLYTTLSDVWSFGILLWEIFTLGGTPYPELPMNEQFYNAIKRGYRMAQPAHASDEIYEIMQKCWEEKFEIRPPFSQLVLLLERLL
# T2 sequence (P07333 20-972): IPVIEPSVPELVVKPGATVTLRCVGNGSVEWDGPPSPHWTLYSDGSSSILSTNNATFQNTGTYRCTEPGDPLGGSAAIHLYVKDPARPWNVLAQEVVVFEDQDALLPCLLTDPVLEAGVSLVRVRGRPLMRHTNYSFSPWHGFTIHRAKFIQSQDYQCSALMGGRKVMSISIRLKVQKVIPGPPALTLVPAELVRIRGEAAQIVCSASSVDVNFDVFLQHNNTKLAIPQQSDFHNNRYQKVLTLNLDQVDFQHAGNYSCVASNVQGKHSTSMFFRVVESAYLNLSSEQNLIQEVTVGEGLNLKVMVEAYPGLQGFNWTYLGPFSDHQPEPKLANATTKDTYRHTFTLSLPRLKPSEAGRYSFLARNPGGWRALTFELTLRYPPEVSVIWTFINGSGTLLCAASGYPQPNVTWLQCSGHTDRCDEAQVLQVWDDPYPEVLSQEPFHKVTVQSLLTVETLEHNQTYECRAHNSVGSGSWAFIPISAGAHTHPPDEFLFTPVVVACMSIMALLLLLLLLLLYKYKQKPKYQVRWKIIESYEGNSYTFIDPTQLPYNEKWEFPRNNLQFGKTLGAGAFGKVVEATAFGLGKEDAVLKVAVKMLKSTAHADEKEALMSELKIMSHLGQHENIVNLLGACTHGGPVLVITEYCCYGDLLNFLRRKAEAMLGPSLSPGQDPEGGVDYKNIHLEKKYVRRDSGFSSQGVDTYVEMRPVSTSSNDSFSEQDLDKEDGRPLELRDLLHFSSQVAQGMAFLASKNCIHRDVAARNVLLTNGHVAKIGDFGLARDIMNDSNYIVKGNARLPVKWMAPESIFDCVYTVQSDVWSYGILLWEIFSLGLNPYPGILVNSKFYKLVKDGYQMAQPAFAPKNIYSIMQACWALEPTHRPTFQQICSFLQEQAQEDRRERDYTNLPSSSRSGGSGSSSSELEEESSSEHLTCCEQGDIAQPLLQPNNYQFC
inhibition at 1 µM [1],inhibition at 1 µM [2],inhibition at 1 µM [4],inhibition at 1 µM [5],Structure (SMILES),inhibition at 1 µM ([3]; MNFS60 cells),inhibition at 1 µM ([3]; MCSF dependent MNFS60 cells)
99%,93%,,,"CNC(=O)c1cc(Oc2ccc3nc(Nc4ccc5c(c4)OCCO5)oc3c2)ccn1 [Compound 5, 4-[2-(2,3-Dihydro-benzo-[1,4]dioxin-6-ylamino)-benzooxazol-6-yloxy]-pyridin-2-carboxylic acid methylamide]",100%,
99%,75%,,,"CNC(=O)c1cc(Oc2ccc3nc(NCc4ccc(Cl)cc4Cl)oc3c2)ccn1 [Compound 9, 4-[2-(2,4-Dichloro-benzylamino)-benzooxazol-6-yloxy]-pyridin-2-carboxylic acid methylamide]",58%,
94%,21%,,,"CNC(=O)c1cc(Oc2ccc3nc(N[C@@H](C)c4ccccc4)oc3c2)ccn1 [Compound 7, 4-[2-((S)-1-Phenyl-ethylamino)-benzooxazol-6-yloxy]-pyridin-2-carboxylic acid methylamide]",17%,
99%,65%,89%,,"CC(=O)Nc1cc(Oc2ccc3nc(NCC4CCCCC4)oc3c2)ccn1 [Compound 34, N-{4-[2-(Cyclohexylmethyl-amino)-benzooxazol-6-yloxy]-pyridin-2-yl}-acetamide]",68%,
99%,79%,35%,,"CNC(=O)c1cc(Oc2ccc3nc(NC4CCCC(C)C4)oc3c2)ccn1 (stereo not drawn) [Compound 10, 4-[2-(3-Methyl-cyclohexyl-amino)-benzooxazol-6-yloxy]-pyridine-2-carboxylic acid methylamide]",62%,
99%,92%,,,"CNC(=O)c1cc(Oc2ccc3nc(NCc4ccccc4Cl)oc3c2)ccn1 [Compound 8, 4-[2-(2-Chloro-benzylamino)-benzooxazol-6-yloxy]-pyridin-2-carboxylic acid methylamide]",60%,
98%,35%,7%,,"CNC(=O)c1cc(Oc2ccc3nc(Nc4ccccc4CN4CCOCC4)oc3c2)ccn1 [Compound 25, 4-[2-(2-Morpholin-4-ylmethyl-phenylamino)-benzooxazol-6-yloxy]-pyridine-2-carboxylic acid methylamide]",42%,
99%,75%,65%,,"CNC(=O)c1cc(Oc2ccc3nc(N[C@H]4C[C@H]5C[C@@H]([C@@H]4C)C5(C)C)oc3c2)ccn1 [Compound 13, 4-[2-((1S,2S,3S,5R)-2,6,6-Trimethyl-bicyclo[3.1.1]hept-3-ylamino)-benzooxazol-6-yloxy]-pyridin-2-carboxylic acid methylamide]",76%,
100%,,0%,1%,"CNC(=O)c1cc(Oc2ccc3nc(NCC4CCOCC4)sc3c2)ccn1 [Compound 141, 4-{2-[(tetrahydro-pyran-4-ylmethyl)-amino]-benzothiazol-6-yloxy}-pyridine-2-carboxylic acid methylamide]",22%,
100%,,52%,51%,"CNc1cc(Oc2ccc3nc(NCC4CCCCC4)sc3c2)ccn1 [Example 338, N-(cyclohexylmethyl)-6-(2-(methylamino)pyridin-4-yloxy)benzo[d]thiazol-2-amine]",,44%
100%,80%,,,"CNC(=O)c1cc(Oc2ccc3nc(N[C@H](C)c4ccccc4)oc3c2)ccn1 [Compound 2, 4-[2-((R)-1-Phenyl-ethylamino)-benzooxazol-6-yloxy]-pyridine-2-carboxylic acid methylamide]",63%,

# Further lines, the compound ahead of its results:
Structure (SMILES),inhibition at 1 µM [1],inhibition at 1 µM [2],inhibition at 1 µM [4],inhibition at 1 µM [5],inhibition at 1 µM ([3]; MNFS60 cells),inhibition at 1 µM ([3]; MCSF dependent MNFS60 cells)
"COc1cc2nccc(Oc3ccc4nc(Nc5ccc6c(c5)OCCO6)oc4c3)c2cc1OC [Compound 4, (2,3-Dihydro-benzo[1,4]dioxin-6-yl)-[6-(6,7-dimethoxy-quinolin-4-yloxy)-benzooxazol-2-yl]-amine]",100%,91%,,,100%,
"CNC(=O)c1cc(Oc2ccc3nc(NCc4ccc(Cl)cc4)oc3c2)ccn1 [Compound 27, 4-[2-(4-Chloro-benzylamino)-benzooxazol-6-yloxy]-pyridine-2-carboxylic acid methylamide]",99%,96%,28%,,97%,
"CNC(=O)c1cc(Oc2ccc3nc(NCc4cccc(Cl)c4)oc3c2)ccn1 [Compound 42, 4-[2-(3-Chloro-benzylamino)-benzooxazol-6-yloxy]-pyridine-2-carboxylic acid methylamide]",99%,97%,12%,,100%,
"CNC(=O)c1cc(Oc2ccc3nc(N[C@H]4CCCC[C@@H]4O)sc3c2)ccn1 [Compound 137, 4-[2-((1S,2S)-2-Hydroxy-cyclohexylamino)-benzothiazol-6-yloxy]-pyridine-2-carboxylic acid methylamide]",100%,98%,,,100%,
"CNC(=O)c1cc(Oc2ccc3nc(NC[C@@H]4C[C@H]5CC[C@@H]4C5(C)C)oc3c2)ccn1 [Compound 15, 4-{2-[((1S,2R,4R)-7,7-Dimethyl-bicyclo[2.2.1]hept-2-ylmethyl)-amino]-benzooxazol-6-yloxy}-pyridin-2-carboxylic acid methylamide]",100%,92%,88%,,97%,
"CC(=O)Nc1cc(Oc2ccc3nc(NCc4ccccc4Cl)oc3c2)ccn1 [Compound 32, N-{4-[2-(2-Chloro-benzylamino)-benzooxazol-6-yloxy]-pyridin-2-yl}-acetamide]",100%,93%,22%,,70%,
"COc1cc2nccc(Oc3ccc4nc(N[C@H](C)c5ccccc5)oc4c3)c2cc1OC [Compound 14, [6-(6,7-Dimethoxy-quinolin-4-yloxy)-benzooxazol-2-yl]-((R)-1-phenyl-ethyl)-amine]",99%,71%,85%,,56%,
"CNC(=O)c1cc(Oc2ccc3nc(NCC4CCCCC4)oc3c2)ccn1 [Compound 21, 4-[2-(Cyclohexylmethyl-amino)-benzooxazol-6-yloxy]-pyridine-2-carboxylic acid methylamide]",99%,65%,0%,,55%,
"CNC(=O)c1cc(Oc2ccc3nc(NCc4ccccc4F)oc3c2)ccn1 [Compound 16, 4-[2-(2-Fluoro-benzylamino)-benzooxazol-6-yloxy]-pyridin-2-carboxylic acid methylamide]",99%,81%,20%,,25%,
"CNC(=O)c1cc(Oc2ccc3nc(Nc4ccc(OC)cc4OC)oc3c2)ccn1 [Compound 28, 4-[2-(2,4-Dimethoxy-phenyl-amino)-benzooxazol-6-yl-oxy]-pyridine-2-carboxylic acid methylamide]",99%,88%,98%,,98%,
"CNC(=O)c1cc(Oc2ccc3nc(NCc4ccccc4)oc3c2)ccn1 [Compound 41, 4-(2-Benzylamino-benzooxazol-6-yloxy)-pyridine-2-carboxylic acid methylamide]",100%,94%,30%,,100%,
